Results on one compound are retold here after patent EP4772530A1, “PEPTIDE TARGETING SOMATOSTATIN RECEPTOR, DRUG CONJUGATE AND USE THEREOF” (Mainline Biosciences (Shanghai) Co., Ltd., priority 2023, dated 2025).

The assay deals with T1, SSTR2 (Homo sapiens, UniProt P30874).
T1 construct: expressed in transfected cells; host or cells: CHO cells (SSTR2/CHO)
Kind of assay: SSTR2 cAMP test. It is filed as cell-based. Conditions: Max Dose 50000 nM. In outline:
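SSTR2-expressing CHO cells were stimulated with forskolin (100 µM stock) in the presence of 10 compound concentrations from 4-fold dilutions. cAMP detected as the 665/615 nm ratio, normalised to high and low controls. EC50 from log(agonist) vs. response variable-slope fit.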

T1 sequence (P30874 whole entry): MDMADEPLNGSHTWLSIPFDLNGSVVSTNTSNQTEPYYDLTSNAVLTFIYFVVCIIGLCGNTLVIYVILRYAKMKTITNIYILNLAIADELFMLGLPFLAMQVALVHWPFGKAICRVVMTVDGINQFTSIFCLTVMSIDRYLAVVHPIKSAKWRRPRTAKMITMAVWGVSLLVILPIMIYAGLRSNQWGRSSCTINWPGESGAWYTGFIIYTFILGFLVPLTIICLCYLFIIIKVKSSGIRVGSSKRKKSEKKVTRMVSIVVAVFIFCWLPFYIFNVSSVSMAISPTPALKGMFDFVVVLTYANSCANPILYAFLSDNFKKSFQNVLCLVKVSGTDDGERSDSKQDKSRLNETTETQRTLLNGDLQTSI

On to `CC[C@H](C)[C@@H]([C@@H](CC(=O)N1CCC[C@H]1[C@H](OC)[C@@H](C)C(=O)N[C@H](C)[C@@H](O)c1ccccc1)OC)N(C)C(=O)[C@@H](NC(=O)[C@H](C(C)C)N(C)C(=O)OCc1ccc(NC(=O)[C@H](CCCNC(N)=O)NC(=O)[C@@H](NC(=O)CCCCCN2C(=O)CC(SC[C@H](NC(C)=O)C(=O)NCCOCCOCC(=O)N[C@@H](CCCNC(=N)N)C(=O)N[C@@H](CCCNC(=N)N)C(=O)N[C@@H](CC(C)C)C(=O)N[C@@H](Cc3ccccc3)C(=O)N[C@H]3CSSC[C@@H](C(=O)N[C@H](C(=O)N[C@@H](Cc4c[nH]c5ccccc45)C(=O)N[C@@H](CCCNC(=N)N)C(=O)N[C@@H](CC(=O)O)C(N)=O)[C@@H](C)O)NC(=O)[C@H]([C@@H](C)O)NC(=O)[C@H](CCCCN)NC(=O)[C@@H](Cc4c[nH]c5ccccc45)NC(=O)[C@H](Cc4ccc(O)cc4)NC3=O)C2=O)C(C)C)cc1)C(C)C` (stereo partly drawn) [Example 1, Cys(MC-Val-Cit-PABC-MMAE)-AEEA-Arg-Arg-Leu-Phe-[Cys-Tyr-D-Trp-Lys-Thr-Cys]-Thr-Trp-Arg-Asp-NH2], for which the activity at 50 µM was 93.9%.
